# Read-outs that look alike come from different tables or passages of the source.
# Tests used:
# [1] = system: apomorphine-induced deficits in PPI in rats; assay: apomorphine-induced deficits in prepulse inhibition (PPI); format: in vivo, rat; settings: s.c. 25 minutes prior to apomorphine 0.5 mg/kg s.c.; Wistar rats
# Description: Male Wistar rats (Japan SLC Inc., Shizuoka, Japan) were used. They were housed in a light, humidity and temperature controlled environment maintained on a 12-hour/12-hour light/dark schedule (light on at 7 am) with food and water provided ad libitum. Four startle chambers (SR-LAB, San Diego Instruments, San Diego, Calif.) were placed in a sound-attenuated room. Each chamber consisted of Plexiglas cylinder 8.8 cm in diameter resting on a 12.7×20.3 cm Plexiglas stand. Acoustic stimuli and background noise were presented via a Supertweeter mounted 24 cm above the Plexiglas cylinder. Startle magnitude was detected and recorded by a microcomputer and interface assembly (San Diego Instruments) as transduced cylinder movement via a piezoelectric device mounted below the Plexiglas stand.
# One day before drug testing, all rats were exposed to a “matching” startle session. Data from this session were used to assign rats to balanced groups according to their startle responses. […] Each session was approximately 20 minutes and consisted of 5 minutes of 70-dB background followed by five trial types, PULSE ALONE trial: a 120-dB 50 ms noise burst, PREPULSE trials which consisted of 20 ms noise bursts 3, 5, 10 dB above 70-dB background noise followed 100 ms later by a 120-dB 40 ms noise burst, NOSTIM trial: 100 ms of response was recorded during periods where no stimulus was presented. […]
# chronic PCP-treated rats [2] = settings: cited from earlier work
# chronic PCP-treated rats [3] = assay: LCGU (2-DG) in chronic PCP rat model
# [4] = target: T1, M4 muscarinic receptors (N1E-115 cells) (Mus musculus, UniProt P32211); assay: Homogenate assay for c-AMP production (PACAP-stimulated); format: biochemical; settings: N1E-115 homogenate; for reduction of c-AMP levels (agonist activity): PACAP 0.1 nM stimulation
# T1 construct: endogenous in cells; host or cells: mouse N1E-115 cells (homogenate)
# T1 sequence (P32211 1-479): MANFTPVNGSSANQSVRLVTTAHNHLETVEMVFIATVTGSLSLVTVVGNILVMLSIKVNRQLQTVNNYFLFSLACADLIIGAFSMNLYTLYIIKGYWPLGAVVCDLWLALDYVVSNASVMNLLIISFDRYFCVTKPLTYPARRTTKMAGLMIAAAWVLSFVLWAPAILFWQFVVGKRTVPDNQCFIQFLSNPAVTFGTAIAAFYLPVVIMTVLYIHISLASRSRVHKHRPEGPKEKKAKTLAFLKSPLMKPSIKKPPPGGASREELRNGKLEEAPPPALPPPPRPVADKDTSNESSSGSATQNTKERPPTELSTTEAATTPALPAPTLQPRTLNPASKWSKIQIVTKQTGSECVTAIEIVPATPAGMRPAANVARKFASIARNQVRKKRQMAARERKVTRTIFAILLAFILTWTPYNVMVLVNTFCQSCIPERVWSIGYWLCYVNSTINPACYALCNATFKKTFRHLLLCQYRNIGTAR
# Experimental: N1E-115 cells were harvested by scraping and placed in Ribolyser tubes on dry ice. Ice cold buffer (0.5 ml) containing 50 mM Tris HCl, 0.4 mM EDTA and 0.4 mM EGTA (pH 7.4) was added to the tubes. The tubes were then placed in a Ribolyser and shaken at 4 g for 20 sec. The homogenate was then transferred to eppendorf tubes and was then centrifuged at 19,700 g for 30 min at 4° C. The pellet was resuspended in ice cold 50 mM Tris HCl (pH7.4) at a concentration of 50 mg ml^−1 wet weight of tissue. The homogenate was stored in aliquots at −70° C. Protein concentrations of the homogenates were determined using a Bio-Rad protein determination kit. The assay was carried out in a final assay volume of 120 μl containing 50 mM Tris HCl (pH7.4), 5 mM MgCl2 50 μM GTP, 200 μM ATP, 120 μM sucrose, 0.4 mM EDTA, 0.4 mM EGTA, 200 μM ascorbic acid, 20 μM papaverine, 200 μM rolipram, 10 μM vinpocetine, 10 mM phosphocreatinine, 0.4 mM DTT, 100 nM WAY 100635, 1 μM propranolol, 36 μg bacitracin, 4.8 U creatine phosphokinase, 3.6 KIU aprotinin. Homogenate (1 mgml^−1) was preincubated with the test compound in ice cold assay buffer for 10 min. PACAP (0.1 nM) was then added to the tubes. The tubes were then incubated at 30° C. for 20 min and then at 99° C. for 5 min. Levels of c-AMP in the tubes were measured using the Amersham Pharmacia Biotech Biotrak c-AMP enzymeimmunoassay kit.
# [5] = target: T2, human M4 muscarinic receptors (Homo sapiens, UniProt P08173); assay: M4 binding assay (3H-NMS); settings: human M4 membranes, 3H-NMS 0.25 nM
# T2 construct: purchased NEN
# T2 sequence (P08173 1-479): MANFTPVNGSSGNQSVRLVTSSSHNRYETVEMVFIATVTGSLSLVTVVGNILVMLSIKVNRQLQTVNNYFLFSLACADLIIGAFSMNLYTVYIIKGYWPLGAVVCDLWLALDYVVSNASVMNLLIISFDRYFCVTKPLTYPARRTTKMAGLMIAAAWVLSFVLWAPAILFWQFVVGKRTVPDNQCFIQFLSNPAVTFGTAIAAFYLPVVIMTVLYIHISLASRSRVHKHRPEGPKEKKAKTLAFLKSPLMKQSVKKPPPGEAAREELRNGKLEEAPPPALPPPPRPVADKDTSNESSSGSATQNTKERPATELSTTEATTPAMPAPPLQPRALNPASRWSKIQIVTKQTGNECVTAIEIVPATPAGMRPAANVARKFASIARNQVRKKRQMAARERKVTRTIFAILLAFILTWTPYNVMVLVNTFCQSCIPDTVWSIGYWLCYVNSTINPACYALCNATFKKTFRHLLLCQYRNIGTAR
# Experimental: Total volume 200 μl/well. Membrane concentration—human M4 membranes (NEN)—8 μg/ml; ^3H-NMS 0.25 nM; Sample conc. 10 nM-300 μM; Atropine Displacement Curve—0.3 nM-1 μM.
# The plates are incubated at 20° C. for 60 minutes in the dark to avoid any photo degradation. Membranes are harvested by rapid filtration using a vacuum manifold under 700 mbar pressure. The plates are washed 3 times with 200 ul per well of ice-cold wash buffer. Plates are dried at 40° C. for 1 hour, 100 μl scintillation fluid is added to each well and cpm determined using a Microbeta scintillation counter.
# human D2 membrane = target: T3, human D2 membrane (Homo sapiens, UniProt P14416); assay: D2 binding assay (3H-spiperone); settings: 3H-spiperone 0.5 nM
# T3 construct: purchased Euroscreen
# T3 sequence (P14416 whole entry): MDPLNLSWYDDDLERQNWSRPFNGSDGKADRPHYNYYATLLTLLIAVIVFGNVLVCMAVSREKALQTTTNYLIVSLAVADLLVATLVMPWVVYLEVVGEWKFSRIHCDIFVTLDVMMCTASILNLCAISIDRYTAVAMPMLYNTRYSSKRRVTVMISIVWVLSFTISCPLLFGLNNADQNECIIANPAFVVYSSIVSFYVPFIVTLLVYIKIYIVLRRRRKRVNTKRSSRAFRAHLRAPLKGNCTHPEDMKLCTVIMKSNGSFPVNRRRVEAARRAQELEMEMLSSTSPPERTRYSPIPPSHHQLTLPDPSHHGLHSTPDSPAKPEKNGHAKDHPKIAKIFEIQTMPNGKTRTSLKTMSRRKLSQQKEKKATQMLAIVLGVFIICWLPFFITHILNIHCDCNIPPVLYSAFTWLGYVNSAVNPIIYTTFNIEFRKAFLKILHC
# Experimental: Total volume 200 μl/well. Membrane concentration—human D2 membrane (purchased from Euroscreen)—10 μg/ml; ^3H-spiperone 0.5 nM; Sample conc. 10 nM-300 μM; Haloperidol Displacement Curve—1 nM-10 μM. The plates are incubated at 25° C. for 60 minutes in the dark to avoid any photo degradation.
# (§1) Membranes are harvested by rapid filtration using a vacuum manifold under 700 mbar pressure. The plates are washed 3 times with 200 ul/well of ice-cold wash buffer. Plates are dried at 40° C. for 1 hour (Higher CPMs are obtained when the filters are dried). 100 μl scintillation fluid is added to each well and cpm determined using a Microbeta scintillation counter.
# human 5-HT7 receptors = target: T4, human 5-HT7 receptors (Homo sapiens, UniProt P34969); assay: 5-HT7 binding assay (3H-5CT); settings: human 5-HT7 membrane, 3H-5CT 0.5 nM
# T4 construct: purchased Euroscreen
# T4 sequence (P34969 whole entry): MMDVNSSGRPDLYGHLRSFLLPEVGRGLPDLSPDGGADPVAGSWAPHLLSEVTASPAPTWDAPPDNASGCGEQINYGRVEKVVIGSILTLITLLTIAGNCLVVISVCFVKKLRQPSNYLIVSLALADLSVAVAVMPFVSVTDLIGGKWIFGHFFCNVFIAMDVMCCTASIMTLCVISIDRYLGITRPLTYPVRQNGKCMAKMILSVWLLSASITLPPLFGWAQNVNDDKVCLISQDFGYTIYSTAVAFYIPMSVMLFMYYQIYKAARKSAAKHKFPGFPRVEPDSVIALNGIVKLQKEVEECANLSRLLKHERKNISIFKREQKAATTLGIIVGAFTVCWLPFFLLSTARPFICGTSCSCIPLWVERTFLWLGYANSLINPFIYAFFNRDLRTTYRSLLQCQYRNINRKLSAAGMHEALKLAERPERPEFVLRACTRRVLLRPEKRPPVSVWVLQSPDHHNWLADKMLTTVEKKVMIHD
# Experimental: The compounds of the present invention were screened for binding affinity using membranes containing stably expressed human M4 muscarinic receptors or human 5-HT7 receptors.
# as §1, with “Total volume 200 μl/well. Membrane concentration—human 5-HT7 membrane (purchased from Euroscreen)—6 μg/ml; ^3H-5CT 0.5 nM; Sample conc. 10 nM-300 μM; 8OH-DPAT Displacement Curve—1 nM-3 μM. The plates are incubated at 20° C. for 120 minutes in the dark to avoid any photo degradation. Membranes” for “Membranes”, “dried)” for “dried).”
# [6] = system: amphetamine-induced hyper-activity in rats; assay: amphetamine-induced hyperactivity in rats; format: in vivo, rat; settings: for Line Crossings (mean ± S.E.): amphetamine control 111.6 ± 6.4
# Experimental: Male Long Evans rats (190-280 g) in each group of five were used. Amphetamine (1.0 mg/kg i.p.) was dissolved in saline, and test compounds were dissolved or suspended in 0.5% hydroxypropylmethylcellulose (HPMC) solution. All the test compounds were injected intraperitoneally in a volume of 0.1 ml/100 g, and control rats were treated with the respective vehicle. The plastic open-field box (40×40×40(H) cm) was used to measure the locomotor activity of rats. The locomotor activity was expressed as the number of line crossings marked on the floor of the test box at 20 cm square. Individual rats were placed in the test box just after the injection of amphetamine, and were allowed to habituate there for 10 min. The line crossings were counted over 15 min thereafter. The behavioural observation was conducted on two rats simultaneously using two test boxes. Test compounds were pretreated 30 min before the injection of amphetamine.
structure (smiles),measurement,setting,value
"Cc1cccc(S(=O)(=O)N2CCC[C@@H]2CCN2CCC(C)CC2)c1 [SB258741, R-(+)-1-(toluene-3-sulfonyl)-2-[2-(4-methylpiperidin-1-yl)ethyl]pyrrolidine]",effect on apomorphine-induced disruption of PPI,[1],Neither PTAC nor SB25871 alone affect the disruption induced by apomorphine
O=C(CCCN1CCC(O)(c2ccc(Cl)cc2)CC1)c1ccc(F)cc1 [haloperidol],effect on PCP-induced hypofunction,"chronic PCP-treated rats [2]; auditory structures, reported previously (Cochran et al., 2003)",reversed the PCP-induced hypofunction
same,effect on PCP-induced metabolic hypofunction,"chronic PCP-treated rats [2]; prelimbic region of the prefrontal cortex, shown previously (Cochran et al., 2003)",failed to reverse
same,effect on PCP-induced hypofunction,"chronic PCP-treated rats [2]; reticular nucleus of the thalamus, shown previously (Cochran et al., 2003)",failed to reverse
same,effect on PCP-induced metabolic hypofunction (LCGU),"chronic PCP-treated rats [3]; prelimbic region of the prefrontal cortex, chronic treatment",not by haloperidol or clozapine
same,effect on PCP-reduced local glucose utilisation,"chronic PCP-treated rats [3]; ventral lateral lemniscus, chronic treatment (FIG. 4)",only partially restores the hypofunction
same,effect on PCP-reduced local glucose utilisation,"chronic PCP-treated rats [3]; ventral reticular thalamic nucleus, chronic treatment (FIG. 3)",not by haloperidol or clozapine
CN1[C@@H]2CC[C@H]1C[C@@H](OC(=O)C(CO)c1ccccc1)C2 (stereo partly shown) [atropine],blockade of the cAMP-reducing effect of Compound 32,[4],the effect was blocked
"OC1CCc2ccc(/N=C/N3CCc4ccccc4C3)cc21 (stereo not shown) [Compound 34, 6-[(3,4-dihydro-1H-isoquinolin-2-ylmethylene)-amino]-indan-1-ol]",Ki,[5],2.8 µM
same,Ki,human D2 membrane,> 300 µM
same,Ki,human 5-HT7 receptors,2.7 µM
O=C1CCCN1CC#CCN1CCCC1 [oxotremorine],reduction of c-AMP levels (agonist activity),[4],showed the ability to reduce c-AMP levels
COc1cc2c(cc1OC)CN(/C=N/c1ccc3c(c1)C(O)CC3)CC2 (stereo not shown) [Compound 32],Ki,[5],0.32 µM
same,Ki,human D2 membrane,> 300 µM
same,Line Crossings (mean ± S.E.),"[6]; dose 1 mg/kg, i.p.",98.8 ± 7.3
same,Line Crossings (mean ± S.E.),"[6]; dose 3 mg/kg, i.p.",89.6 ± 13.3
same,Line Crossings (mean ± S.E.),"[6]; dose 10 mg/kg, i.p.",45.6 ± 8.3
same,effect on amphetamine-induced hyperactivity,"[6]; rats, i.p., 30 min before amphetamine",suppressed the hyperactivity in a dose-dependent manner
same,"ED50, suppression of amphetamine-induced hyperactivity","[6]; rats, amphetamine 1.0 mg/kg i.p., 95% confidence limits, estimated","8.1 (95% confidence limits; 4.4-15) mg/kg, i.p."
same,reduction of c-AMP levels (agonist activity),[4],able to reduce cAMP levels
same,Ki,human 5-HT7 receptors,0.4 µM
"CCCSc1nsnc1[C@H]1CN2CCC[C@H]1C2 [PTAC, (5R,6R)6-(3-propylthio-1,2,5-thiadiazol-4-yl)-1-azabicyclo(3.2.1)octane]",effect on apomorphine-induced disruption of PPI,[1],Neither PTAC nor SB25871 alone affect the disruption induced by apomorphine
